Results on 14 molecules are retold here after US20170205395A1, “METHODS FOR PROVIDING PERSONALIZED MEDICINE TEST EX VIVO FOR HEMATOLOGICAL NEOPLASMS” (priority 2009, published 2017).

Like-named read-outs stand apart in the source and are kept apart here.

The subject of one data set is malignant CLL cells. The class given is cell-based. The settings on record: for ex vivo efficacy in killing malignant cells compared with approved cytotoxic drugs: CLL ex vivo samples, FIG. 6; for ability of SSRIs to induce apoptosis in malignant CLL cells: FIG. 9; for induction of apoptosis after 24 hours: CLL whole blood samples, 24 hours incubation, FIG. 8; for ex vivo patient response: 30 μM.

The test system of another data set is MOLT-4 cells. The data set can be described thus: Apoptosis ELISA (one step sandwich ELISA of histone-complexed DNA fragments). To be noted: 24 hours, FIG. 20. The class given is cell-based, human. From the text:
The one step sandwich ELISA is based in the quantification of histone-complexed DNA fragments (mono- and oligonucleosomes) out of the cytoplasm of cells after the induction of apoptosis or when released from necrotic cells.
(In an ELISA, binding on a coated surface is turned into a signal by an enzyme label.)

Data set [1] deals with active caspase-3 in MOLT-4 cells. The data set can be described thus: Active caspase-3 determination by Western blot. The class given is cell-based, human. To be noted: 24 hours, FIG. 21. As to the method: Caspase-3 activation was determined using a Western blot of extracts from two acute lymphoblastic cell lines (TOM-1 and MOLT-4) exposed to increased concentrations of sertraline. […] Active caspase-3 is a protease that serves as a marker of apoptosis.
On the technique in general: In western blotting, separated proteins are transferred to a membrane and probed.

Data set [2] has as its system patients with Chronic Lymphocytic Leukemia. To be noted: cited from earlier work.
For another data set, the system named is T and NK cells. The data set can be described thus: Ex vivo Annexin V flow cytometry apoptosis assay in CLL whole blood, non-malignant cells. In kind it is cell-based, human. To be noted: approximately 30 μM, whole blood sample from a CLL patient, FIG. 7. For orientation: Flow cytometry measures light scatter and fluorescence of single cells or particles in a stream.

The mark [3] stands for this setting: CLL sample, maximum concentrations, cyclophosphamide tested as its metabolite maphosphamide, FIG. 22.

Regarding “rituximab: antibody approved for CLL treatment”, the “ex vivo efficacy (resistant / sensitive)” value in the data set with malignant CLL cells (setting [3]) is given as “resistant”.

Consider `O=P1(N(CCCl)CCCl)NCCCO1` (centres unmarked) [cyclophosphamide], for which the “ex vivo efficacy (resistant / sensitive)” value with malignant CLL cells is listed as “resistant”.

On to `COc1ccc2[nH]c([S+]([O-])Cc3ncc(C)c(OC)c3C)nc2c1` (centres unmarked) [omeprazole], for which, in the data set on malignant CLL cells (sample of one CLL patient, FIG. 12), the “apoptotic rate (Annexin V positive cells) compared with cytotoxic agents” value is on record as “showed similar apoptotic rates as the cytotoxic agents”.

Turning to `COc1ccc(CCN2CCC(Nc3nc4ccccc4n3Cc3ccc(F)cc3)CC2)cc1` [astemizole], in the data set on malignant CLL cells, the “ex vivo efficacy in killing malignant cells compared with approved cytotoxic drugs” value was “ex vivo efficacy similar to that of the approved cytotoxic drugs”.

As for `CNCCC(Oc1ccc(C(F)(F)F)cc1)c1ccccc1` (centres unmarked) [fluoxetine], in the data set on malignant CLL cells, the “ex vivo efficacy in killing malignant cells compared with approved cytotoxic drugs” value is “ex vivo efficacy similar to that of the approved cytotoxic drugs” and the “ability of SSRIs to induce apoptosis in malignant CLL cells” value (“ability of SSRIs to induce apoptosis” for short) is on record as “induce apoptosis similarly to clinically approved cytotoxic drugs”.

Turning to `CN[C@H]1CC[C@@H](c2ccc(Cl)c(Cl)c2)c2ccccc21` [sertraline], in the data set with malignant CLL cells, the “ex vivo efficacy in killing malignant cells compared with approved cytotoxic drugs” value is listed as “ex vivo efficacy similar to that of the approved cytotoxic drugs”, the “induction of apoptosis after 24 hours” value is reported as “more than 90%” and the “ability of SSRIs to induce apoptosis” value is “induce apoptosis similarly to clinically approved cytotoxic drugs”. For the same molecule, in the data set with malignant CLL cells (CLL patient sample, sub-maximal dose of sertraline added to chlorambucil, upper curve of FIG. 11), the “potentiation of chlorambucil-induced apoptosis” value is on record as “greatly enhanced the level of apoptosis”. The “time to eliminate all malignant cells” value with malignant CLL cells (CLL sample, FIG. 28) is no more than 24 h. Besides, the “incubation with the sample required to induce maximal apoptosis” value in the data set with malignant CLL cells (CLL sample, drug washed away, apoptosis measured at 24 or 48 hours, FIG. 28) came to 30 min. Moreover, the “increase of the Apoptosis Index” value with MOLT-4 cells was “up to 7 fold”. In addition, in data set [1], the “induction of active caspase-3” value is listed as “dramatically induced active caspase-3”.

With `N=C(N)N/N=C/c1c(Cl)cccc1Cl` [guanabenz], the “ex vivo efficacy in killing malignant cells compared with approved cytotoxic drugs” value in the data set with malignant CLL cells was “ex vivo efficacy similar to that of the approved cytotoxic drugs”.

For `COCCCC/C(=N\OCCN)c1ccc(C(F)(F)F)cc1` [fluvoxamine], the “ability of SSRIs to induce apoptosis” value with malignant CLL cells is “only 3 (paroxetine, fluoxetine, and sertraline) induce apoptosis similarly”.

In the case of `Nc1nc(F)nc2c1ncn2[C@@H]1O[C@H](CO)[C@@H](O)[C@@H]1O` [fludarabine], the “induction of apoptosis after 24 hours” value in the data set with malignant CLL cells is on record as “approximately 40%”.

`COc1cccc2c1C(=O)c1c(O)c3c(c(O)c1C2=O)C[C@@](O)(C(=O)CO)C[C@@H]3O[C@H]1C[C@H](N)[C@H](O)[C@H](C)O1` [doxorubicin]: the “ex vivo patient response” value with malignant CLL cells (the two patients denoted by a star, FIG. 4) is on record as “very effective”.

For the molecule `O=C1c2c(O)ccc(O)c2C(=O)c2c(NCCNCCO)ccc(NCCNCCO)c21` [mitoxantrone], the “ex vivo patient response” value in the data set on malignant CLL cells (patients P1.0105, P2.0019 and P2.035, FIG. 4) is given as “extreme resistance ex vivo”. Moreover, the “ex vivo efficacy (resistant / sensitive)” value in the data set on malignant CLL cells (setting [3]) is listed as “resistant”. For the same molecule, the “induction of apoptosis after 24 hours” value in the data set with malignant CLL cells is roughly 50%.

In the case of `O=C(O)CCCc1ccc(N(CCCl)CCCl)cc1` [chlorambucil], the “induction of apoptosis by the drug alone” value in the data set with malignant CLL cells (CLL patient sample, low concentrations, lower curve of FIG. 11) was “did not induce much apoptosis”. The “induction of apoptosis after 24 hours” value with malignant CLL cells is on record as roughly 45%. The “% of patients responding” value is 66.3 (92) % in data set [2] (CLL patients with ITRT result DI (Drug Intermediate)), 37.6 (24) % in data set [2] (CLL patients with ITRT result DR (Drug Resistant)), 85.1 (94) % in data set [2] (CLL patients with ITRT result DS (Drug Sensitive)) and 71.5 (210) % in data set [2] (all CLL patients (Total)).

In the case of `CN(C)C/C=C(/c1ccc(Br)cc1)c1cccnc1` [zimelidine], in the data set with malignant CLL cells, the “ability of SSRIs to induce apoptosis” value was “only 3 (paroxetine, fluoxetine, and sertraline) induce apoptosis similarly”.

In the case of `Fc1ccc([C@@H]2CCNC[C@H]2COc2ccc3c(c2)OCO3)cc1` [paroxetine], in the data set on malignant CLL cells, the “ex vivo efficacy in killing malignant cells compared with approved cytotoxic drugs” value is “ex vivo efficacy similar to that of the approved cytotoxic drugs” and the “ability of SSRIs to induce apoptosis” value was “induce apoptosis similarly to clinically approved cytotoxic drugs”. Further, the “apoptosis in leukemic cells” value in the data set with malignant CLL cells (approximately 30 μM, whole blood sample from a CLL patient, FIG. 7) is given as roughly 100%. Further, the “apoptosis in T and NK cells” value in the data set with T and NK cells is 15%.
